For 2 compounds, inhibition results are on record in patent US20130172320A1, “PYRIDO [4,3-B] INDOLE AND PYRIDO [3,4-B] INDOLE DERIVATIVES AND METHODS OF USE” (priority 2010, published 2013).

The term inhibition denotes the change of the read-out against control, counted positive when it falls.

In assay [1] the target is T1, human recombinant adrenergic α2A receptor (Homo sapiens, UniProt P08913).
T1 construct: expressed in transfected cells; host or cells: insect Sf9 cells
T1 sequence (P08913 1-465): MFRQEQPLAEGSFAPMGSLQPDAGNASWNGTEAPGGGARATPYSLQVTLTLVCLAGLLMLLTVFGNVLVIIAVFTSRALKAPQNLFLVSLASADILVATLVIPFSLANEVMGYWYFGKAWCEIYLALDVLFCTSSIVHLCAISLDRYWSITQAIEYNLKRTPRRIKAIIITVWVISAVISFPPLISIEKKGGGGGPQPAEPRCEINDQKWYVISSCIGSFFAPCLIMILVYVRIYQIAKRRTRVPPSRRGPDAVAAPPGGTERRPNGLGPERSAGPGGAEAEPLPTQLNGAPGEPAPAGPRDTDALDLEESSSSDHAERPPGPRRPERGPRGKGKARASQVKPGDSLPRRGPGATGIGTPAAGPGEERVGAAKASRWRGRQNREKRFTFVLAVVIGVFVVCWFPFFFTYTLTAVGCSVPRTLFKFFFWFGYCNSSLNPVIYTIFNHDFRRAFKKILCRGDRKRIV
Put plainly: Adrenergic α2A radioligand binding ([3H]MK-912). The settings on record: compound at 0.1 μM; read-out: Percentage inhibition of ligand binding, Adrenergic (0.1 μM) a2A. Here is the method:
To evaluate in radioligand binding assays the activity of compounds of the invention, human recombinant adrenergic α2A receptor expressed in insect Sf9 cells (Uhlen, S. et al, J. Pharmacol. Exp. Ther. 271:1558, 1994) in a modified Tris-HCl buffer (50 mM Tris-HCl, pH 7.4, 12.5 mM MgCl2, 2 mM EDTA) was used. Compounds of invention were incubated with 1 nM […] for 60 min at 25° C. MK912 is (2S-trans)-1,3,4,5′,6,6′,7,12b-octahydro-1′,3′-dimethyl-spiro[2H-benzofuro[2,3-a]quinolizine-2,4′(111)-pyrimidin]-2′(3′H)-one hydrochloride Non-specific binding was estimated in the presence of 10 μM WB-4101 (2-(2,6-Dimethoxyphenoxyethyl)aminomethyl-1,4-benzodioxane hydrochloride). Receptor proteins were filtered and washed, the filters were then counted to determine [^3H]MK-912 specifically bound. Compounds were screened at 1 μM or lower, using 1% DMSO as vehicle. Biochemical assay results are presented as the percent inhibition of specific binding in Table 3.

The target in assay [2] is human recombinant dopamine D2L receptor (Homo sapiens, UniProt P14416). Put plainly: Dopamine D2L radioligand binding ([3H]Spiperone). The conditions noted are these: compound at 0.2 μM; read-out: Percentage inhibition of ligand binding, Dopamine (0.2 μM) D2L. The procedure: To evaluate in radioligand binding assays the activity of compounds of the invention, human recombinant dopamine D2L receptor expressed in Chinese hamster ovary (CHO) cells (Grandy, D. et al, Proc. Natl. Acad. Sci. USA. 86:9762, 1989; Hayes, G. et al, Mol. Endocrinol. 6:920, 1992) in a modified Tris-HCl buffer (50 mM Tris-HCl, pH 7.4, 1.4 mM Ascorbic Acid, 0.001% BSA, 150 mM NaCl) was used. Compounds of the invention were incubated with 0.16 nM [^3H]Spiperone for 120 min at 25° C. Non-specific binding was estimated in the presence of 10 μM Haloperidol. Receptor proteins were filtered and washed, the filters were then counted to determine [^3H]Spiperone specifically bound. Compounds were screened at 1 μM or lower, using 1% DMSO as vehicle. Biochemical assay results are presented as the percent inhibition of specific binding in Table 3.
Sequence of human recombinant dopamine D2L receptor (P14416 whole entry): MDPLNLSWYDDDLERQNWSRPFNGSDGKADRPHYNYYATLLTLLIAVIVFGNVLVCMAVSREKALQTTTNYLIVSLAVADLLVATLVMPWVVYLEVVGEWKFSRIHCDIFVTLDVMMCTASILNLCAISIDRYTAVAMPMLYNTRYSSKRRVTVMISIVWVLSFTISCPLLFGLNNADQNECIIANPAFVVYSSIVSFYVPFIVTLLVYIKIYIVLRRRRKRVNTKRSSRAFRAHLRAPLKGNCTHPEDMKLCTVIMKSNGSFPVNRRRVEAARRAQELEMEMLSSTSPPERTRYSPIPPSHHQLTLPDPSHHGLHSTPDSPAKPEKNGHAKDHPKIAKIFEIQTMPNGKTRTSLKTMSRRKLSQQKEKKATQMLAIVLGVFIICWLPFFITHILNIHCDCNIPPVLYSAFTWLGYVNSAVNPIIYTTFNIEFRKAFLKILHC

Assay [3] addresses T2, human recombinant serotonin (5-Hydroxytryptamine) 5-HT2A receptor (Homo sapiens, UniProt P28223).
T2 construct: expressed in transfected cells; host or cells: Chinese hamster ovary (CHO) K1 cells
Put plainly: Serotonin 5-HT2A radioligand binding ([3H]Ketanserin). The settings on record: compound at 0.1 μM; read-out: Percentage inhibition of ligand binding, Serotonin (0.1 μM) 5-HT2A. The procedure:
To evaluate in radioligand binding assays the activity of compounds of the invention, human recombinant serotonin (5-Hydroxytryptamine) 5-HT2A receptor expressed in Chinese hamster ovary (CHO) K1 cells (Bonhaus, D. et al, Br. J. Pharmacol. 115:622, 1995; Saucier, C. et al, J. Neurochem. 68:1998, 1997) in a 50 mM Tris-HCl buffer, pH 7.4, was used. Compounds of the invention were incubated with 0.5 nM [^3H]Ketanserin for 60 min at 25° C. Non-specific binding was estimated in the presence of 1 μM Mianserin. Receptor proteins were filtered and washed, the filters were then counted to determine [^3H]Ketanserin specifically bound. Compounds were screened at 1 μM or lower, using 1% DMSO as vehicle. Biochemical assay results are presented as the percent inhibition of specific binding in Table 4.

The target in assay [4] is T3, human recombinant serotonin (5-Hydroxytryptamine) 5-HT6 receptor (Homo sapiens, UniProt P50406).
T3 construct: expressed in transfected cells; host or cells: human HeLa cells
T3 sequence (P50406 whole entry): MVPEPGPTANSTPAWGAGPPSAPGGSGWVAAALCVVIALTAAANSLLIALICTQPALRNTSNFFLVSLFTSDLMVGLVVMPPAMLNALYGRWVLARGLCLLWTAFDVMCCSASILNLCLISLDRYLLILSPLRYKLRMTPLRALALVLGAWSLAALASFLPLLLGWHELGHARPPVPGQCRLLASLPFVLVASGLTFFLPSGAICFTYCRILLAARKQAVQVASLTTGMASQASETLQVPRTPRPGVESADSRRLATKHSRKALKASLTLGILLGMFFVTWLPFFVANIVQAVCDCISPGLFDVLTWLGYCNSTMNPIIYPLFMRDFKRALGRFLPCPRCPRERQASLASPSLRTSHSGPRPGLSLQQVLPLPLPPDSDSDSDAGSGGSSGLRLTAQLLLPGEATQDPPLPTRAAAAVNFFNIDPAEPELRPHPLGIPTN
In words: Serotonin 5-HT6 radioligand binding ([3H]LSD). The settings on record: compound at 0.1 μM; read-out: Percentage inhibition of ligand binding, Serotonin (0.1 μM) 5-HT6. The procedure:
To evaluate in radioligand binding assays the activity of compounds of the invention, human recombinant serotonin (5-Hydroxytryptamine) 5-HT6 receptor expressed in human HeLa cells (Monsma, F. Jr. et al, Mol. Pharmacol. 43:320, 1993) in a modified Tris-HCl buffer (50 mM Tris-HCl, pH 7.4, 150 mM NaCl, 2 mM Ascorbic Acid, 0.001% BSA) was used. Compounds of the invention were incubated with 1.5 nM [3H]Lysergic acid diethylamide (LSD) for 120 min at 37° C. Non-specific binding was estimated in the presence of 5 μM Serotonin (5-HT). Receptor proteins were filtered and washed, the filters were then counted to determine [3H]LSD specifically bound. Compounds were screened at 1 μM or lower, using 1% DMSO as vehicle. Biochemical assay results are presented as the percent inhibition of specific binding in Table 4.

T2 sequence (P28223 whole entry): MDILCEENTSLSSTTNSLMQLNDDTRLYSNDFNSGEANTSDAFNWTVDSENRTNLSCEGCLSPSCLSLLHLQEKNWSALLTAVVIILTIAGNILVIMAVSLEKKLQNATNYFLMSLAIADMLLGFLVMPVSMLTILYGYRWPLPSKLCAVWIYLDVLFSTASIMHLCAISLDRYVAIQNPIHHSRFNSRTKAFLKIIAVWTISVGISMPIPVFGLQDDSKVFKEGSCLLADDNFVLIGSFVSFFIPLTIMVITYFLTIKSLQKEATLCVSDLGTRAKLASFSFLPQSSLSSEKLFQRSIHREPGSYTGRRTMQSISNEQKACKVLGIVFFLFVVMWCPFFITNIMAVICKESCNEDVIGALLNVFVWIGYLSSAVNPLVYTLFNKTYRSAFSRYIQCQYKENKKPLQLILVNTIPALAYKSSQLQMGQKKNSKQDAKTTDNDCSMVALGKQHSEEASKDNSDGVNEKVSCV

Take `C#CCC1(C)CN(C)Cc2c1n(C)c1ccc(C)cc21` (centres unmarked) [Compound 47, 2,4,5,8-tetramethyl-4-(prop-2-ynyl)-2,3,4,5-tetrahydro-1H-pyrido[4,3-b]indole]: the inhibition at 0.1 µM amounted to 15% in assay [1], 32% in assay [3] and 14% in assay [4]. The inhibition at 0.2 µM in assay [2] was 5%.

For `Cc1ccc2c(c1)c1c(n2C)C(C)(CCc2nc(-c3ccccc3)cs2)CN(C)C1` (centres unmarked) [Compound 48], the values for the inhibition at 0.1 µM in assay [1], in assay [3] and in assay [4] were 2%, 39% and 22%, respectively. Besides, the inhibition at 0.2 µM in assay [2] was -5%.
